Where “and” joins values, the source holds several entries; their conditions need not be identical. Equal entries are not always repeated. Results filed as inconclusive are left out.
Test system: BDF1 mice, colon carcinoma 38 sc, T/C %
Assay: NCI In Vivo Anticancer Drug Screen. Data for tumor model Colon Carcinoma 38 (subcutaneous) in B6D2F1 (BDF1) mice
Settings: endpoint: median tumor weight (est.), higher = larger tumour
Method: The antitumor activity of compounds was measured in mice bearing transplantable tumors. Survival or tumor size were measured and the results are expressed as the measurement made in the treated group (T) divided by the measurement made in the vehicle treated control group (C). The tumor model used in this assay is Colon Carcinoma 38 (subcutaneous) in B6D2F1 (BDF1) mice

[1] = dose: 8.0 mg/kg/injection, schedule: Q07DX003 (ip), vehicle: saline with Tween-80
[2] = dose: 50.0 mg/kg/injection, schedule: Q07DX002 (ip), vehicle: saline
[3] = dose: 100.0 mg/kg/injection, schedule: Q07DX002 (ip), vehicle: saline
[4] = dose: 12.5 mg/kg/injection, schedule: Q07DX002 (ip), vehicle: saline with Tween-80
[5] = dose: 50.0 mg/kg/injection, schedule: Q07DX002 (ip), vehicle: saline with Tween-80
[6] = dose: 100.0 mg/kg/injection, schedule: Q07DX002 (ip), vehicle: saline with Tween-80
[7] = dose: 200.0 mg/kg/injection, schedule: Q07DX002 (ip), vehicle: saline with Tween-80
[8] = dose: 25.0 mg/kg/injection, schedule: Q07DX002 (ip), vehicle: saline with Tween-80
[9] = dose: 50.0 mg/kg/injection, schedule: Q07DX002 (ip), vehicle: Klucel (hydroxypropylcellulose) (HPC)
[10] = dose: 100.0 mg/kg/injection, schedule: Q07DX002 (ip), vehicle: Klucel (hydroxypropylcellulose) (HPC)
[11] = dose: 400.0 mg/kg/injection, schedule: Q07DX002 (ip), vehicle: Klucel (hydroxypropylcellulose) (HPC)
[12] = dose: 12.5 mg/kg/injection, schedule: Q07DX002 (ip), vehicle: saline
[13] = dose: 25.0 mg/kg/injection, schedule: Q07DX002 (ip), vehicle: saline
[14] = dose: 200.0 mg/kg/injection, schedule: Q07DX002 (ip), vehicle: saline

With `CN1CCN(c2ccc([N+](=O)[O-])c3no[n+]([O-])c23)CC1` the T/C (dose: 5.0 mg/kg/injection, schedule: Q07DX002 (ip), vehicle: saline with Tween-80) was 105 % of control, the T/C (dose: 20.0 mg/kg/injection, schedule: Q07DX002 (ip), vehicle: saline with Tween-80) was 77 % of control and the T/C (dose: 40.0 mg/kg/injection, schedule: Q07DX002 (ip), vehicle: saline with Tween-80) was 68 % of control.
In the case of `O=NN(CCCl)C(=O)NC1CCC(=O)NC1=O` (configuration not stated), the T/C (dose: 2.0 mg/kg/injection, schedule: Q07DX003 (ip), vehicle: saline with Tween-80) is reported as 82 % of control, the T/C (dose: 4.0 mg/kg/injection, schedule: Q07DX003 (ip), vehicle: saline with Tween-80) is reported as 93 % of control and the T/C [1] is reported as 76 % of control. For the same compound, the T/C (dose: 13.0 mg/kg/injection, schedule: Q07DX003 (ip), vehicle: saline with Tween-80) was 57 % of control and the T/C (dose: 20.0 mg/kg/injection, schedule: Q07DX003 (ip), vehicle: saline with Tween-80) was 12 % of control.
For `O=C(O)Cc1cccc2c(=O)cc(-c3ccco3)oc12`, the T/C [2] was 74 % of control and the T/C [3] was 53 % of control.
For `CCCCCCCCCCCCCCCCCC(=O)Nc1ccn(C2OC(CO)C(O)C2O)c(=O)n1` (configuration not stated), the T/C [4] was 99 % of control, the T/C [5] was 35 % of control and 59 % of control and the T/C [6] was 25 % of control. The T/C [7] was 4 % of control.
In the case of `Cc1cc(O)c2c(c1O)C(=O)C13C(=C2O)C(=O)C2C(O)C1C1C(O)C3C(=O)C3=C(O)c4c(O)cc(C)c(O)c4C(=O)C321` (configuration not stated), the T/C (dose: 6.25 mg/kg/injection, schedule: Q07DX002 (ip), vehicle: saline with Tween-80) is reported as 68 % of control.
For `COC1=C(C)C(=O)C2=C(C1=O)C(CO)N1C(C#N)C3CC4C(C1C2N1CCOC41)N3C` (configuration not stated), the T/C (dose: 0.25 mg/kg/injection, schedule: Q07DX002 (ip), vehicle: saline + alcohol) was 67 % of control, the T/C (dose: 0.5 mg/kg/injection, schedule: Q07DX002 (ip), vehicle: saline + alcohol) was 109 % of control and the T/C (dose: 2.0 mg/kg/injection, schedule: Q07DX002 (ip), vehicle: saline + alcohol) was 153 % of control. The T/C (dose: 4.0 mg/kg/injection, schedule: Q07DX002 (ip), vehicle: saline + alcohol) was 87 % of control.
For `CCOC(=O)N1CCc2nc3ccc(Cl)cc3cc21`, the T/C [8] was 68 % of control, the T/C [5] was 68 % of control and the T/C [6] was 166 % of control. The T/C [7] was 79 % of control and the T/C (dose: 400.0 mg/kg/injection, schedule: Q07DX002 (ip), vehicle: saline with Tween-80) was 111 % of control.
With `ClCCN(CCCl)c1ccc(/C=C/c2ccccc2)cc1` the T/C [9] was 71 % of control, the T/C [10] was 116 % of control and the T/C (dose: 200.0 mg/kg/injection, schedule: Q07DX002 (ip), vehicle: Klucel (hydroxypropylcellulose) (HPC)) was 72 % of control. For the same compound, the T/C [11] was 71 % of control and the T/C (dose: 800.0 mg/kg/injection, schedule: Q07DX002 (ip), vehicle: Klucel (hydroxypropylcellulose) (HPC)) was 79 % of control.
With `O=C1C(O)=C(c2ccccc2)C(=O)C(O)=C1c1ccccc1` the T/C [4] was 103 % of control, the T/C [12] was 89 % of control and the T/C [8] was 111 % of control. The T/C [13] was 55 % of control, the T/C [5] was 86 % of control and the T/C [2] was 106 % of control. The T/C [3] was 105 % of control and the T/C [14] was 102 % of control.
In the case of `CCc1ccccc1N1CCN(C(=O)c2cc(OC)c(OC)c(OC)c2)CC1`, the T/C (dose: 12.5 mg/kg/injection, schedule: Q07DX003 (ip), vehicle: Klucel (hydroxypropylcellulose) (HPC)) is reported as 92 % of control, the T/C (dose: 25.0 mg/kg/injection, schedule: Q07DX003 (ip), vehicle: Klucel (hydroxypropylcellulose) (HPC)) is reported as 96 % of control and the T/C (dose: 50.0 mg/kg/injection, schedule: Q07DX003 (ip), vehicle: Klucel (hydroxypropylcellulose) (HPC)) is reported as 47 % of control. For the same compound, the T/C (dose: 100.0 mg/kg/injection, schedule: Q07DX003 (ip), vehicle: Klucel (hydroxypropylcellulose) (HPC)) was 64 % of control, the T/C (dose: 200.0 mg/kg/injection, schedule: Q07DX003 (ip), vehicle: Klucel (hydroxypropylcellulose) (HPC)) was 54 % of control and the T/C (dose: 400.0 mg/kg/injection, schedule: Q07DX003 (ip), vehicle: Klucel (hydroxypropylcellulose) (HPC)) was 13 % of control.
With `CC(=O)NCCCCCCNC(C)=O` the T/C [3] was 77 % of control, the T/C [14] was 66 % of control and 81 % of control and the T/C (dose: 400.0 mg/kg/injection, schedule: Q07DX002 (ip), vehicle: saline) was 108 % of control. For the same compound, the T/C (dose: 1600.0 mg/kg/injection, schedule: Q07DX002 (ip), vehicle: saline) was 90 % of control and 91 % of control.
In the case of `CC12C(=O)C=CCC1=CCC1C2CCC2(O)C(=O)OC3(C)C4CC5(C)C(COC16OC23C5C6=O)C(=O)O4` (configuration not stated), the T/C [9] is reported as 112 % of control, the T/C [10] is reported as 86 % of control and the T/C [11] is reported as 111 % of control.
In the case of `C[CH2][Ge]([CH2]C)[CH2]C.C[CH2][Ge]([CH2]C)[CH2]C.C[CH2][Ge]([CH2]C)[O][Ge]([CH2]C)[CH2]C`, the T/C [4] is reported as 80 % of control, the T/C [8] is reported as 90 % of control and the T/C [5] is reported as 87 % of control. The T/C [6] was 68 % of control, the T/C [7] was 81 % of control and 95 % of control and the T/C (dose: 800.0 mg/kg/injection, schedule: Q07DX002 (ip), vehicle: saline with Tween-80) was 90 % of control.
With `CCC(c1ccc(OC(=O)Cc2ccc(N(CCCl)CCCl)cc2)cc1)C(CC)c1ccc(OC(=O)Cc2ccc(N(CCCl)CCCl)cc2)cc1` (configuration not stated) the T/C (dose: 9.38 mg/kg/injection, schedule: Q07DX002 (ip), vehicle: saline with Tween-80) was 120 % of control, the T/C (dose: 18.7 mg/kg/injection, schedule: Q07DX002 (ip), vehicle: saline with Tween-80) was 92 % of control and the T/C (dose: 37.5 mg/kg/injection, schedule: Q07DX002 (ip), vehicle: saline with Tween-80) was 33 % of control. The T/C (dose: 75.0 mg/kg/injection, schedule: Q07DX002 (ip), vehicle: saline with Tween-80) was 46 % of control, the T/C (dose: 300.0 mg/kg/injection, schedule: Q07DX002 (ip), vehicle: saline with Tween-80) was 51 % of control and 61 % of control and the T/C (dose: 600.0 mg/kg/injection, schedule: Q07DX002 (ip), vehicle: saline with Tween-80) was 51 % of control and 61 % of control.
For `NC(CSC(c1ccccc1)(c1ccccc1)c1ccccc1)C(=O)O` (configuration not stated), the T/C (dose: 8.0 mg/kg/injection, schedule: Q07DX003 (ip), vehicle: Klucel (hydroxypropylcellulose) (HPC)) was 83 % of control, the T/C [1] was 78 % of control and the T/C (dose: 16.0 mg/kg/injection, schedule: Q07DX003 (ip), vehicle: Klucel (hydroxypropylcellulose) (HPC)) was 53 % of control. For the same compound, the T/C (dose: 16.0 mg/kg/injection, schedule: Q07DX003 (ip), vehicle: saline with Tween-80) was 61 % of control, the T/C (dose: 32.0 mg/kg/injection, schedule: Q07DX003 (ip), vehicle: Klucel (hydroxypropylcellulose) (HPC)) was 64 % of control and the T/C (dose: 32.0 mg/kg/injection, schedule: Q07DX003 (ip), vehicle: saline with Tween-80) was 57 % of control. The T/C (dose: 64.0 mg/kg/injection, schedule: Q07DX003 (ip), vehicle: Klucel (hydroxypropylcellulose) (HPC)) was 46 % of control, the T/C (dose: 64.0 mg/kg/injection, schedule: Q07DX003 (ip), vehicle: saline with Tween-80) was 75 % of control and the T/C (dose: 128.0 mg/kg/injection, schedule: Q07DX003 (ip), vehicle: Klucel (hydroxypropylcellulose) (HPC)) was 34 % of control. The T/C (dose: 128.0 mg/kg/injection, schedule: Q07DX003 (ip), vehicle: saline with Tween-80) was 9 % of control and the T/C (dose: 256.0 mg/kg/injection, schedule: Q07DX003 (ip), vehicle: Klucel (hydroxypropylcellulose) (HPC)) was 17 % of control.
With `C[N+](C)(C)c1ncnc2c1ncn2C1CCCO1` (configuration not stated) the T/C [12] was 110 % of control, the T/C [13] was 84 % of control and the T/C [2] was 61 % of control and 77 % of control. For the same compound, the T/C [14] was 65 % of control and 89 % of control.
In the case of `COc1ccc(C(=O)c2no[n+]([O-])c2C(=O)c2ccc(OC)cc2)cc1`, the T/C [4] is reported as 107 % of control and the T/C [5] is reported as 99 % of control and 106 % of control.
`CCCCCCC/C=C/C(=O)OC1C(OC2C(OC(CCCCCCC)CC(=O)OC(CCCCCCC)CC(=O)O)OC(C)C(O)C2O)OC(C)C(O)C1O` (configuration not stated) was tested, and the T/C (dose: 28.0 mg/kg/injection, schedule: Q07DX002 (ip), vehicle: Klucel (hydroxypropylcellulose) (HPC)) was 79 % of control, the T/C (dose: 112.0 mg/kg/injection, schedule: Q07DX002 (ip), vehicle: Klucel (hydroxypropylcellulose) (HPC)) was 123 % of control and the T/C (dose: 225.0 mg/kg/injection, schedule: Q07DX002 (ip), vehicle: Klucel (hydroxypropylcellulose) (HPC)) was 42 % of control.

From PubChem BioAssay AID212 (DTP/NCI, 2004)
